Experiments:
Format in all cases: cell-based, human
cyclin B1 = experiment: RT-PCR of cyclin B1 mRNA in prostate cancer cells; settings: PC3 or LNCaP cells, mahanine treatment
Protocol: FIG. 5. RASSF1A down-regulates cyclin D1 expression in prostate cancer cells but not other cyclins. […] RNA was extracted, and RT-PCR assays were performed to detect RASSF1A, cyclin A1, B1, D1, E1 and GAPDH mRNAs. Representative photograph from an experiment that was repeated thrice. Quantitative estimations of relative levels of cyclin D1 and RASSF1A mRNAs were determined by densitometric measurements of RT-PCR gels from three independent experiments after normalization with GAPDH.
Genes of interest were amplified using 500 ng of total RNA reverse-transcribed to cDNA using a Superscript II kit (Invitrogen) with random hexamers. Human-specific primers were designed using the Primer Quest program and purchased from Integrated DNA Technologies, Inc (Coralville, Iowa). […] After amplification, PCR products were separated on 1.5% agarose gels and visualized by ethidium bromide fluorescence using the Fuji LAS-1000 Imager. […] Band intensities were quantified by using ImageJ software (NIH, Bethesda, Md.).

LNCaP cells = experiment: Flow cytometric cell cycle analysis, LNCaP; settings: mahanine 3 days
Protocol: FIG. 4A-4B. Mahanine arrests prostate cancer cells at G0/G1 phase of cell cycle. To determine if down-regulation of cyclin D1 by mahanine treatments affect cell cycle, PC3 4(A) and LNCaP 4(B) cells were treated with 0, 1 and 2 μg/ml mahanine for 3 days. After treatment, flow cytometric analyses were performed. The percentage of cells in the G0/G1, S and G2/M-phase of the cell cycle were shown on right. FACS analysis of PC3 and LNCaP prostate cancer cells with vehicle or 2 μg/ml mahanine are shown in the left panel. Values are the mean from two independent experiments in duplicates.
Since cyclin D1 regulates cell cycle progression at the G0/G1 phase, Aplicants examined the cell cycle profile of PC3 and LNCaP cells in the presence of various concentrations of mahanine.

RASSF1 gene = experiment: Gene array (microarray) analysis of RASSF1 expression; settings: PC3 cells, 2 μg/ml mahanine, 2 days, compared to vehicle-treated control
Protocol: FIGS. 1A-1D. Mahanine induces RASSF1A in prostate and other cancer cells. FIG. 1A: Microarray analyses of PC3 cells treated with ([…] (+) or vehicle (−) for 2 days, RNA was extracted and microarray analysis was performed. FIG. 1B: RT-PCR data showing the expression of RASSF1A and GAPDH in untreated normal prostate epithelial cells (PrEC) and human prostate cancer cells (PC3). FIG. 1C: PC3 (left panel) and LNCaP (right panel) cells were treated with 0, 1, 2 and 3 μg/ml mahanine for 3 days. RNA was extracted, and RT-PCR assays were performed to detect RASSF1A and GAPDH expression. Representative photograph from an experiment that was repeated thrice. Quantitative estimations of relative levels of RASSF1A mRNAs (lower panels) were determined by densitometric measurements of RT-PCR gels from three independent experiments after normalization with GAPDH. […]
Microarray analysis: Total RNA was isolated from […] cells treated with or without mahanine using TRIZOL reagent (Invitrogen Corp., Carlsbad, Calif.). […] RNA was evaluated by electrophoresis before continuing with probe synthesis and hybridization. […] Following repetitive washing in saline-sodium citrate/SDS, hybridized cDNA probes were detected by chemiluminescence. […] Bound biotinylated cDNA probe was detected with alkaline phosphatase-conjugated streptavidin and CDP-Star chemiluminescent substrate (SuperArray). […]

**Q.** For `CC(C)=CCC[C@@]1(C)C=Cc2c(c(C)cc3c2[nH]c2cc(O)ccc23)O1` [mahanine], which “cyclin B1 expression (RT-PCR)” value (cyclin B1) is on record?
**A.** Its value is “did not alter the expression”.

**Q.** What about the “cells in S-phase” value (LNCaP cells; decreased from 25.6% (control)) of the same compound?
**A.** The value was 6.1%.

**Q.** What about the “cells in G0/G1 phase” value (LNCaP cells; increased from 63.7% (control)) of the same compound?
**A.** The value was 90.7%.

**Q.** And the “RASSF1 gene expression (gene array)” value (RASSF1 gene)?
**A.** Its value is “dramatically induced”.
